Blank lines part the entries; values can stand above or below the compound they belong to.
Tested on: PANC-1 complex spheroid growth, percent test/control
Experiment: Anticancer human tumor PANC-1 cell line growth inhibition [Asc];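 also: spheroids exposed to agents for 7 days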;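 as to viability, T/C: percent viability relative to DMSO vehicle wells taken as 100%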
Conditions: for IC50: curve of first compound; for viability, T/C: stronger effect = lower value
Outline: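 Stromal components (HUVEC and hMSC) are co-assembled with the cancer cells into multicellular spheroids. Drugs are then added singly or paired, at concentrations falling by half-log increments from a clinically achievable maximum, capped at 10 microM without known Cmax.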

[1] = second compound 0.0316 µM, first compound 0.0316 µM
[2] = second compound 0.0316 µM, first compound 0.1 µM
[3] = second compound 0.0316 µM, first compound 0.316 µM
[4] = second compound 0.0316 µM, first compound 1 µM
[5] = second compound 0.0316 µM, first compound 3.16 µM
[6] = second compound 0.0316 µM, first compound 10 µM
[7] = second compound 0.1 µM, first compound 0.0316 µM
[8] = second compound 0.1 µM, first compound 0.1 µM
[9] = second compound 0.1 µM, first compound 0.316 µM
[10] = second compound 0.1 µM, first compound 1 µM
[11] = second compound 0.1 µM, first compound 3.16 µM
[12] = second compound 0.1 µM, first compound 10 µM
[13] = second compound 0.316 µM, first compound 0.0316 µM
[14] = second compound 0.316 µM, first compound 0.1 µM
[15] = second compound 0.316 µM, first compound 0.316 µM
[16] = second compound 0.316 µM, first compound 1 µM
[17] = second compound 0.316 µM, first compound 3.16 µM
[18] = second compound 0.316 µM, first compound 10 µM
[19] = second compound 1 µM, first compound 0.0316 µM
[20] = second compound 1 µM, first compound 0.1 µM
[21] = second compound 1 µM, first compound 0.316 µM
[22] = second compound 1 µM, first compound 1 µM
[23] = second compound 1 µM, first compound 3.16 µM
[24] = second compound 1 µM, first compound 10 µM

IC50 (second compound 0.00316 µM): > 10 µM
IC50 (second compound 0.01 µM): > 10 µM
IC50 (second compound 0.0316 µM): > 10 µM
IC50 (second compound 0.1 µM): > 10 µM
IC50 (second compound 0.316 µM): > 10 µM
IC50 (second compound 1 µM): > 10 µM
Structure (SMILES): C#Cc1c(F)ccc2cc(O)cc(-c3ncc4c(N5CC6CCC(C5)N6)nc(OCC56CCCN5CC(F)C6)nc4c3F)c12 (stereo unspecified) + CNC(C)C(=O)NC1CN(S(=O)(=O)c2cccc(S(=O)(=O)N3CCC4CCC(C(=O)NC(c5ccccc5)c5ccccc5)N4C(=O)C(NC(=O)C(C)NC)C3)c2)CCC2CCC(C(=O)NC(c3ccccc3)c3ccccc3)N2C1=O
viability, T/C (second compound 0.00316 µM, first compound 0.0316 µM): 93.3%
viability, T/C (second compound 0.00316 µM, first compound 0.1 µM): 85.7%
viability, T/C (second compound 0.00316 µM, first compound 0.316 µM): 88%
viability, T/C (second compound 0.00316 µM, first compound 1 µM): 85.6%
viability, T/C (second compound 0.00316 µM, first compound 3.16 µM): 91%
viability, T/C (second compound 0.00316 µM, first compound 10 µM): 78%
viability, T/C (second compound 0.01 µM, first compound 0.0316 µM): 91.6%
viability, T/C (second compound 0.01 µM, first compound 0.1 µM): 81.9%
viability, T/C (second compound 0.01 µM, first compound 0.316 µM): 89.2%
viability, T/C (second compound 0.01 µM, first compound 1 µM): 76.4%
viability, T/C (second compound 0.01 µM, first compound 3.16 µM): 86.5%
viability, T/C (second compound 0.01 µM, first compound 10 µM): 78.7%
viability, T/C [1]: 88.9%
viability, T/C [2]: 77.8%
viability, T/C [3]: 76.6%
viability, T/C [4]: 82%
viability, T/C [5]: 79.7%
viability, T/C [6]: 70.1%
viability, T/C [7]: 90.8%
viability, T/C [8]: 85.2%
viability, T/C [9]: 85.6%
viability, T/C [10]: 73.7%
viability, T/C [11]: 78.8%
viability, T/C [12]: 75.4%
viability, T/C [13]: 83%
viability, T/C [14]: 81.8%
viability, T/C [15]: 77.1%
viability, T/C [16]: 76.4%
viability, T/C [17]: 79.6%
viability, T/C [18]: 70.3%
viability, T/C [19]: 90.1%
viability, T/C [20]: 82.2%
viability, T/C [21]: 77.1%
viability, T/C [22]: 80.4%
viability, T/C [23]: 77.8%
viability, T/C [24]: 69.2%

IC50 (second compound 0.0316 µM): > 10 µM
IC50 (second compound 0.1 µM): > 10 µM
IC50 (second compound 0.316 µM): > 10 µM
IC50 (second compound 1 µM): > 10 µM
IC50 (second compound 3.16 µM): > 10 µM
IC50 (second compound 10 µM): > 10 µM
Structure (SMILES): O=C(c1cc(Cc2n[nH]c(=O)c3ccccc23)ccc1F)N1CCN(C(=O)C2CC2)CC1 + Cc1c(S(C)(=O)=O)c(-c2cc(F)cc(N3CCN(c4ccc(NS(=O)(=O)c5ccc(NC(CCN6CCC(C(=O)OCCCP(=O)(O)O)CC6)CSc6ccccc6)c(S(=O)(=O)C(F)(F)F)c5)cc4)CC3)c2)c(-c2ccc(Cl)cc2)n1C(C)C
viability, T/C [1]: 106%
viability, T/C [2]: 104%
viability, T/C [3]: 107%
viability, T/C [4]: 107%
viability, T/C [5]: 99%
viability, T/C [6]: 93.7%
viability, T/C [7]: 89%
viability, T/C [8]: 107%
viability, T/C [9]: 107%
viability, T/C [10]: 103%
viability, T/C [11]: 117%
viability, T/C [12]: 95.5%
viability, T/C [13]: 102%
viability, T/C [14]: 103%
viability, T/C [15]: 112%
viability, T/C [16]: 112%
viability, T/C [17]: 103%
viability, T/C [18]: 86.1%
viability, T/C [19]: 112%
viability, T/C [20]: 101%
viability, T/C [21]: 105%
viability, T/C [22]: 111%
viability, T/C [23]: 111%
viability, T/C [24]: 86.9%
viability, T/C (second compound 3.16 µM, first compound 0.0316 µM): 103%
viability, T/C (second compound 3.16 µM, first compound 0.1 µM): 106%
viability, T/C (second compound 3.16 µM, first compound 0.316 µM): 106%
viability, T/C (second compound 3.16 µM, first compound 1 µM): 115%
viability, T/C (second compound 3.16 µM, first compound 3.16 µM): 119%
viability, T/C (second compound 3.16 µM, first compound 10 µM): 87.2%
viability, T/C (second compound 10 µM, first compound 0.0316 µM): 166%
viability, T/C (second compound 10 µM, first compound 0.1 µM): 178%
viability, T/C (second compound 10 µM, first compound 0.316 µM): 187%
viability, T/C (second compound 10 µM, first compound 1 µM): 202%
viability, T/C (second compound 10 µM, first compound 3.16 µM): 171%
viability, T/C (second compound 10 µM, first compound 10 µM): 88.9%

IC50 (second compound 0.0316 µM): > 0.3 µM
IC50 (second compound 0.1 µM): > 0.3 µM
IC50 (second compound 0.316 µM): > 0.3 µM
IC50 (second compound 1 µM): > 0.3 µM
IC50 (second compound 3.16 µM): > 0.3 µM
IC50 (second compound 10 µM): > 0.3 µM
Structure (SMILES): NC(=O)C(=Cn1cnc(-c2cc(C(F)(F)F)cc(C(F)(F)F)c2)n1)c1cncnc1 + Cc1c(S(C)(=O)=O)c(-c2cc(F)cc(N3CCN(c4ccc(NS(=O)(=O)c5ccc(NC(CCN6CCC(C(=O)OCCCP(=O)(O)O)CC6)CSc6ccccc6)c(S(=O)(=O)C(F)(F)F)c5)cc4)CC3)c2)c(-c2ccc(Cl)cc2)n1C(C)C
viability, T/C (second compound 0.0316 µM, first compound 0.000949 µM): 103%
viability, T/C (second compound 0.0316 µM, first compound 0.003 µM): 90.5%
viability, T/C (second compound 0.0316 µM, first compound 0.00949 µM): 93.7%
viability, T/C (second compound 0.0316 µM, first compound 0.03 µM): 91%
viability, T/C (second compound 0.0316 µM, first compound 0.0949 µM): 118%
viability, T/C (second compound 0.0316 µM, first compound 0.3 µM): 90.8%
viability, T/C (second compound 0.1 µM, first compound 0.000949 µM): 96.3%
viability, T/C (second compound 0.1 µM, first compound 0.003 µM): 102%
viability, T/C (second compound 0.1 µM, first compound 0.00949 µM): 97.4%
viability, T/C (second compound 0.1 µM, first compound 0.03 µM): 102%
viability, T/C (second compound 0.1 µM, first compound 0.0949 µM): 121%
viability, T/C (second compound 0.1 µM, first compound 0.3 µM): 84.3%
viability, T/C (second compound 0.316 µM, first compound 0.000949 µM): 105%
viability, T/C (second compound 0.316 µM, first compound 0.003 µM): 93.6%
viability, T/C (second compound 0.316 µM, first compound 0.00949 µM): 101%
viability, T/C (second compound 0.316 µM, first compound 0.03 µM): 98.5%
viability, T/C (second compound 0.316 µM, first compound 0.0949 µM): 122%
viability, T/C (second compound 0.316 µM, first compound 0.3 µM): 99.9%
viability, T/C (second compound 1 µM, first compound 0.000949 µM): 105%
viability, T/C (second compound 1 µM, first compound 0.003 µM): 101%
viability, T/C (second compound 1 µM, first compound 0.00949 µM): 97.7%
viability, T/C (second compound 1 µM, first compound 0.03 µM): 94%
viability, T/C (second compound 1 µM, first compound 0.0949 µM): 130%
viability, T/C (second compound 1 µM, first compound 0.3 µM): 84.5%
viability, T/C (second compound 3.16 µM, first compound 0.000949 µM): 108%
viability, T/C (second compound 3.16 µM, first compound 0.003 µM): 94.5%
viability, T/C (second compound 3.16 µM, first compound 0.00949 µM): 98.1%
viability, T/C (second compound 3.16 µM, first compound 0.03 µM): 104%
viability, T/C (second compound 3.16 µM, first compound 0.0949 µM): 120%
viability, T/C (second compound 3.16 µM, first compound 0.3 µM): 79.3%
viability, T/C (second compound 10 µM, first compound 0.000949 µM): 152%
viability, T/C (second compound 10 µM, first compound 0.003 µM): 192%
viability, T/C (second compound 10 µM, first compound 0.00949 µM): 181%
viability, T/C (second compound 10 µM, first compound 0.03 µM): 205%
viability, T/C (second compound 10 µM, first compound 0.0949 µM): 196%
viability, T/C (second compound 10 µM, first compound 0.3 µM): 86.7%

From PubChem BioAssay AID1963435 (Molecular Pharmacology Branch, DTP, NCI, 2024)
